Measured values taken from patent US20100267561A1, “HERBICIDAL PYRIDAZINONE DERIVATIVES” (priority 2007, published 2010).

Tests used:
Assay type in all cases: in vivo
[1] = test system: woolly cupgrass (Eriochloa villosa); test: Test B pre-/postemergence plant response
In short: (§1)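 Preemergence and postemergence (plants 2-18 cm, 1- to 4-leaf stage) applications used test chemicals in a non-phytotoxic solvent with surfactant. Plants were held in a greenhouse 13 to 15 days, then rated visually against controls on a 0-100 scale (0 no effect, 100 complete control).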

[2] = test system: eastern black (E.B.) nightshade (Solanum ptycanthum); test: Test B pre-/postemergence plant response; settings: Preemergence
In short: as §1

[3] = test system: green foxtail (Setaria viridis); test: Test B pre-/postemergence plant response
In short: as §1

[4] = test system: common ragweed (Ambrosia elation); test: Test B pre-/postemergence plant response
In short: as §1

[5] = test system: large crabgrass (Digitaria sanguinalis); test: Test B pre-/postemergence plant response
In short: as §1

[6] = test system: johnsongrass (Sorghum halepense); test: Test B pre-/postemergence plant response
In short: as §1

[7] = test system: velvetleaf (Abutilon theophrasti); test: Test B pre-/postemergence plant response
In short: as §1

[8] = test system: pigweed (Amaranthus retroflexus); test: Test B pre-/postemergence plant response
In short: as §1

[9] = test system: common (oilseed) sunflower (Helianthus annuus); test: Test B pre-/postemergence plant response; settings: Preemergence; for Sunflower plant response rating: scale 0 to 100
In short: as §1

[10] = test system: goosegrass (Eleusine indica); test: Test B pre-/postemergence plant response
In short: as §1

[11] = test system: giant foxtail (Setaria faberii); test: Test B pre-/postemergence plant response
In short: as §1

wild oat (Avena fatua) = test: Test B pre-/postemergence plant response
In short: as §1

[12] = test system: ducksalad (Heteranthera limosa); test: Test B flooded paddy test plant response
In short: (§2)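 2-leaf plants; pots flooded 3 cm above soil; compound added to paddy water; depth maintained. Greenhouse 13–15 d. Visual rating vs controls, 0 (no effect) to 100 (complete control); dash = no result.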

rice (Oryza sativa) = test: Test B flooded paddy test plant response
In short: as §2

[13] = 8 g ai/ha, postemergence, 0-100 scale
[14] = Postemergence, 16 g ai/ha, scale 0 to 100
[15] = Postemergence, 31 g ai/ha, scale 0 to 100
[16] = Postemergence, 62 g ai/ha, scale 0 to 100, 0 no effect, 100 complete control
[17] = Preemergence, 31 g ai/ha, scale 0 to 100 (0 no effect, 100 complete control)
[18] = Preemergence, 62 g ai/ha, 0 to 100 scale, 0 no effect, 100 complete control
[19] = Preemergence, 8 g ai/ha, scale 0 to 100
[20] = Preemergence, 16 g ai/ha, scale 0 to 100
[21] = 31 g ai/ha, scale 0 to 100 (0 no effect, 100 complete control)
[22] = 62 g ai/ha, 0 to 100 scale, 0 no effect, 100 complete control
[23] = 16 g ai/ha, postemergence, 0-100 scale
[24] = Flood (flooded paddy test), 62 g ai/ha, scale 0 to 100, 0 no effect, 100 complete control
[25] = Flood (flooded paddy test), 125 g ai/ha, scale 0 to 100, 0 no effect, 100 complete control
[26] = Flood (flooded paddy test), 250 g ai/ha, scale 0 to 100, 0 no effect, 100 complete control
[27] = Flood, 31 g ai/ha, scale 0 to 100

CCc1cc(-c2ccc(Br)cc2)nn1-c1c(O)cnn(C)c1=O [Compound 61]
Cupgrass, Woolly plant response rating [1, 13]: 98 | Plant response rating, Cupgrass, Woolly [1, 14]: 100 | Plant response rating, Cupgrass, Woolly [1, 15]: 100 | Plant response rating, Cupgrass, Woolly [1, 16]: 100 | Plant response rating, Cupgrass, Woolly [1, 17]: 100 | Plant response rating, Cupgrass, Woolly [1, 18]: 100 | Cupgrass, Woolly plant response rating [1, 19]: 80 | Cupgrass, Woolly plant response rating [1, 20]: 98 | Plant response rating, Nightshade, E. B. [2, 21]: 0 | Plant response rating, Nightshade, E. B. [2, 22]: 0 | Nightshade, E. B. plant response rating ([2]; 16 g ai/ha, scale 0 to 100): 0 | Foxtail, Green plant response rating [3, 13]: 95 | Plant response rating, Foxtail, Green [3, 14]: 100 | Plant response rating, Foxtail, Green [3, 15]: 100 | Plant response rating, Foxtail, Green [3, 16]: 100 | Plant response rating, Foxtail, Green [3, 17]: 100 | Plant response rating, Foxtail, Green [3, 18]: 100 | Foxtail, Green plant response rating [3, 19]: 100 | Foxtail, Green plant response rating [3, 20]: 100 | Ragweed plant response rating [4, 13]: 0 | Ragweed plant response rating [4, 23]: 0 | Plant response rating, Ragweed [4, 15]: 0 | Plant response rating, Ragweed [4, 16]: 0 | Plant response rating, Ragweed [4, 17]: 0 | Plant response rating, Ragweed [4, 18]: 0 | Ragweed plant response rating [4, 19]: 0 | Ragweed plant response rating [4, 20]: 0 | Crabgrass, Large plant response rating [5, 13]: 98 | Plant response rating, Crabgrass, Large [5, 14]: 100 | Plant response rating, Crabgrass, Large [5, 15]: 100 | Plant response rating, Crabgrass, Large [5, 16]: 100 | Plant response rating, Crabgrass, Large [5, 17]: 100 | Plant response rating, Crabgrass, Large [5, 18]: 100 | Crabgrass, Large plant response rating [5, 19]: 50 | Crabgrass, Large plant response rating [5, 20]: 95 | Johnsongrass plant response rating [6, 13]: 65 | Johnsongrass plant response rating [6, 23]: 100 | Plant response rating, Johnsongrass [6, 15]: 100 | Plant response rating, Johnsongrass [6, 16]: 100 | Plant response rating, Johnsongrass [6, 17]: 100 | Plant response rating, Johnsongrass [6, 18]: 100 | Johnsongrass plant response rating [6, 19]: 90 | Johnsongrass plant response rating [6, 20]: 95 | Velvetleaf plant response rating [7, 13]: 0 | Velvetleaf plant response rating [7, 23]: 0 | Plant response rating, Velvetleaf [7, 15]: 0 | Plant response rating, Velvetleaf [7, 16]: 0 | Plant response rating, Velvetleaf [7, 17]: 0 | Plant response rating, Velvetleaf [7, 18]: 0 | Velvetleaf plant response rating [7, 19]: 0 | Velvetleaf plant response rating [7, 20]: 0 | Pigweed plant response rating [8, 13]: 0 | Pigweed plant response rating [8, 23]: 0 | Plant response rating, Pigweed [8, 15]: 0 | Plant response rating, Pigweed [8, 16]: 0 | Plant response rating, Pigweed [8, 17]: 0 | Plant response rating, Pigweed [8, 18]: 0 | Pigweed plant response rating [8, 19]: 0 | Pigweed plant response rating [8, 20]: 0 | Plant response rating, Sunflower [9, 21]: 0 | Plant response rating, Sunflower [9, 22]: 0 | Sunflower plant response rating ([9]; 8 g ai/ha): 0 | Sunflower plant response rating ([9]; 16 g ai/ha): 0 | Goosegrass plant response rating [10, 13]: 98 | Goosegrass plant response rating [10, 23]: 100 | Plant response rating, Goosegrass [10, 15]: 100 | Plant response rating, Goosegrass [10, 16]: 100 | Plant response rating, Goosegrass [10, 17]: 100 | Plant response rating, Goosegrass [10, 18]: 100 | Goosegrass plant response rating [10, 19]: 80 | Goosegrass plant response rating [10, 20]: 100 | Foxtail, Giant plant response rating [11, 13]: 98 | Plant response rating, Foxtail, Giant [11, 14]: 100 | Plant response rating, Foxtail, Giant [11, 15]: 100 | Plant response rating, Foxtail, Giant [11, 16]: 100 | Plant response rating, Foxtail, Giant [11, 17]: 100 | Plant response rating, Foxtail, Giant [11, 18]: 100 | Foxtail, Giant plant response rating [11, 19]: 75 | Foxtail, Giant plant response rating [11, 20]: 100 | Oat, Wild plant response rating (wild oat (Avena fatua); [13]): 100 | Oat, Wild plant response rating (wild oat (Avena fatua); [23]): 100 | Plant response rating, Oat, Wild (wild oat (Avena fatua); [15]): 100 | Plant response rating, Oat, Wild (wild oat (Avena fatua); [16]): 100 | Plant response rating, Oat, Wild (wild oat (Avena fatua); [17]): 95 | Plant response rating, Oat, Wild (wild oat (Avena fatua); [18]): 100 | Oat, Wild plant response rating (wild oat (Avena fatua); [19]): 40 | Oat, Wild plant response rating (wild oat (Avena fatua); [20]): 90 | Plant response rating, Ducksalad [12, 24]: 0 | Plant response rating, Ducksalad [12, 25]: 0 | Plant response rating, Ducksalad [12, 26]: 70 | Plant response rating, Ducksalad [12, 27]: 0 | Plant response rating, Rice (rice (Oryza sativa); [24]): 0 | Plant response rating, Rice (rice (Oryza sativa); [25]): 15 | Plant response rating, Rice (rice (Oryza sativa); [26]): 60 | Plant response rating, Rice (rice (Oryza sativa); [27]): 0
